Earlier results as cited in patent US5756528A, “Inhibitors of farnesyl-protein transferase” (Merck & Co., Inc., priority 1996, dated 1998).

Tested on: farnesyl-protein transferase
Settings: via HMG-CoA reductase inhibition, background literature

SMILES | Indirect inhibition of farnesyl-protein transferase in vivo
CC[C@H](C)C(=O)O[C@H]1CCC=C2C=C[C@H](C)[C@H](CC[C@@H]3C[C@@H](O)CC(=O)O3)[C@H]21 [compactin] | Indirect inhibition of farnesyl-protein transferase in vivo has been demonstrated
CC[C@H](C)C(=O)O[C@H]1C[C@@H](C)C=C2C=C[C@H](C)[C@H](CC[C@@H]3C[C@@H](O)CC(=O)O3)[C@H]21 [lovastatin] | Indirect inhibition of farnesyl-protein transferase in vivo has been demonstrated
